Measured values as given in ChEMBL document CHEMBL3046872, “Management of Macrophomina wilt in melons using grafting or fungicide soil application: Pathological, horticultural and economical aspects” (2012).

Experiments:
Format in all cases: functional
Macrophomina phaseolina [1] = experiment: Fungicidal activity against Macrophomina phaseolina assessed as mycelial growth inhibition incubated at 27 degC for 5 days; details: 120 h
Macrophomina phaseolina [2] = experiment: (§1) Fungicidal activity against Macrophomina phaseolina in non-grafted Melon plants cv. 6405 plots assessed as disease incidence exposed to compound at 200 ml/1000 m2 of commercial product applied as soil drench three times during growing season (reference value: 65%)
Macrophomina phaseolina [3] = experiment: Fungicidal activity against Macrophomina phaseolina in non-grafted Melon plants cv. 6405 plots assessed as disease incidence exposed to compound at 300 ml/1000 m2 of commercial product applied as soil drench three times during growing season (reference value: 65%)
Macrophomina phaseolina [4] = experiment: (§2) Fungicidal activity against Macrophomina phaseolina in non-grafted Melon plants cv. 6405 plots assessed as disease incidence exposed to compound at 250 ml/1000 m2 of commercial product applied as soil drench three times during growing season (reference value: 65%)
Macrophomina phaseolina [5] = experiment: Fungicidal activity against Macrophomina phaseolina in non-grafted Melon plants cv. 6405 plots assessed as disease incidence exposed to compound at 100 ml/1000 m2 of commercial product applied as soil drench three times during growing season (reference value: 65%)
Macrophomina phaseolina [6] = experiment: as §1, with “plots infested with Macrophomina phaseolina” for “plots”, “40” for “200”, “drench to crown zone” for “drench”, “season 21 to 49 days after transplanting” for “season”, “23%)” for “65%)”
Macrophomina phaseolina [7] = experiment: as §1, with “plots infested with Macrophomina phaseolina” for “plots”, “40” for “200”, “to crown zone 2” for “three”, “season 44 to 56 days after seeding” for “season”, “45%)” for “65%)”
Macrophomina phaseolina [8] = experiment: as §2, with “plots infested with Macrophomina phaseolina” for “plots”, “drench to crown zone” for “drench”, “season 21 to 49 days after transplanting” for “season”, “23%)” for “65%)”
Macrophomina phaseolina [9] = experiment: as §2, with “plots infested with Macrophomina phaseolina” for “plots”, “to crown zone 2” for “three”, “season 44 to 56 days after seeding” for “season”, “45%)” for “65%)”
Macrophomina phaseolina [10] = experiment: as §2, with “plots infested with Macrophomina phaseolina” for “plots”, “to crown zone 1 time” for “three times”, “season 44 to 56 days after seeding” for “season”, “45%)” for “65%)”
Macrophomina phaseolina [11] = experiment: Fungicidal activity against Macrophomina phaseolina in non-grafted Melon plants cv. 6405 plots assessed as disease incidence exposed to compound at 350 ml/1000 m2 of commercial product applied as soil drench three times during growing season (reference value: 65%)

Compound `CCCCC(C#N)(Cn1cncn1)c1ccc(Cl)cc1` (configuration not stated) [MYCLOBUTANIL] has an ED50 (Macrophomina phaseolina [1]) of 0.26 mg/kg and an Activity (Macrophomina phaseolina [2]) of 45%.

`CC(C)NC(=O)N1CC(=O)N(c2cc(Cl)cc(Cl)c2)C1=O` [IPRODIONE] showed an ED50 (Macrophomina phaseolina [1]) of 0.03 mg/kg and an Activity (Macrophomina phaseolina [2]) of 35%.

`N#Cc1c(Cl)c(Cl)c(Cl)c(C#N)c1Cl` [CHLOROTHALONIL] was tested, and the ED50 (Macrophomina phaseolina [1]) was 0.61 mg/kg.

`FC(F)C(F)(F)OCC(Cn1cncn1)c1ccc(Cl)cc1Cl` (configuration not stated) [TETRACONAZOLE] showed an Activity (Macrophomina phaseolina [3]) of 15% and an ED50 (Macrophomina phaseolina [1]) of 2.96 mg/kg.

`CCCN(CCOc1c(Cl)cc(Cl)cc1Cl)C(=O)n1ccnc1` [PROCHLORAZ] gave an Activity (Macrophomina phaseolina [4]) of 35% and an ED50 (Macrophomina phaseolina [1]) of 0.04 mg/kg.

`O=CNC(N1CCN(C(NC=O)C(Cl)(Cl)Cl)CC1)C(Cl)(Cl)Cl` (configuration not stated) [TRIFORINE] showed an Activity (Macrophomina phaseolina [4]) of 25% and an ED50 (Macrophomina phaseolina [1]) of 1 mg/kg.

With `O=C(Cc1ccccc1)N/C(=N\OCC1CC1)c1c(C(F)(F)F)ccc(F)c1F` [CYFLUFENAMID] the Activity (Macrophomina phaseolina [5]) was 60% and the ED50 (Macrophomina phaseolina [1]) was < 0.01 mg/kg.

`COCC(=O)N(c1c(C)cccc1C)[C@H](C)C(=O)OC` [MEFENOXAM] gave an Activity (Macrophomina phaseolina [6]) of 10%, an Activity (Macrophomina phaseolina [7]) of 50% and an Activity (Macrophomina phaseolina [3]) of 10%. For the same compound, the ED50 (Macrophomina phaseolina [1]) was > 10 mg/kg.

`CO/C=C(/C(=O)OC)c1ccccc1Oc1cc(Oc2ccccc2C#N)ncn1` [AZOXYSTROBIN] showed an Activity (Macrophomina phaseolina [8]) of 3%, an Activity (Macrophomina phaseolina [9]) of 5% and an Activity (Macrophomina phaseolina [10]) of 15%. For the same compound, the ED50 (Macrophomina phaseolina [1]) was 0.38 mg/kg and the Activity (Macrophomina phaseolina [2]) was 5%.

With `CCCOC(=O)NCCCN(C)C.Cl` [PROPAMOCARB HYDROCHLORIDE] the Activity (Macrophomina phaseolina [11]) was 30% and the ED50 (Macrophomina phaseolina [1]) was 0.9 mg/kg.

Compound `OC(Cn1cncn1)(c1ccc(F)cc1)c1ccccc1F` (configuration not stated) [FLUTRIAFOL] has an Activity (Macrophomina phaseolina [4]) of 50% and an ED50 (Macrophomina phaseolina [1]) of 13.1 mg/kg.

With `O=[N+]([O-])c1cc(C(F)(F)F)c(Cl)c([N+](=O)[O-])c1Nc1ncc(C(F)(F)F)cc1Cl` [FLUAZINAM] the ED50 (Macrophomina phaseolina [1]) was < 0.01 mg/kg.
